From US20250230193A1, “CYCLIC COMPOUND HAVING SELECTIVE KRAS INHIBITORY EFFECT ON HRAS AND NRAS” (CHUGAI SEIYAKU KABUSHIKI KAISHA, priority 2022, published 2025)

Columns and labels:
[1] = biological target: GDP-bound NRAS wild-type protein (Homo sapiens, UniProt P01111); test: Binding to NRAS by surface plasmon resonance (SPR), Single Cycle Kinetics; conditions: SPR; KD ratio class
[2] = biological target: GDP-bound HRAS wild-type protein (Homo sapiens, UniProt P01112); test: Binding to HRAS by surface plasmon resonance (SPR), Single Cycle Kinetics; conditions: SPR; KD ratio class
[3] = test system: human lung cancer strain NCI-H441; test: cells; conditions: NCI-H441, 96 h, read-out: NCI-H441 IC50 (nM)

Chain of GDP-bound HRAS wild-type protein (P01112 whole entry): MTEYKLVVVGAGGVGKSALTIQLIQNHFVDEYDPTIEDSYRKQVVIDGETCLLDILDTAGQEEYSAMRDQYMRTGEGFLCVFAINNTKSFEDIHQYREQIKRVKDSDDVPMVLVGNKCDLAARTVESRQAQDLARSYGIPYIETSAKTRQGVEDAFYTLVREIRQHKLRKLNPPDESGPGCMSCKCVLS
Chain of GDP-bound NRAS wild-type protein (P01111 whole entry): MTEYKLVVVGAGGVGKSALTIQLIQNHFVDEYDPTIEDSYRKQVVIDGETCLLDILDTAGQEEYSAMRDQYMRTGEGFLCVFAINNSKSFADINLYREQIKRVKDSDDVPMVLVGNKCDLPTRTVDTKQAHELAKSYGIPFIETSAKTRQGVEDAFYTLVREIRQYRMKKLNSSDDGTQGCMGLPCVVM

SMILES | NRAS/KRAS (ratio of KD value for GDP-bound NRAS wild-type protein to KD value for KRAS) [1] | HRAS/KRAS (ratio of KD value for GDP-bound HRAS wild-type protein to KD value for KRAS) [2] | IC50 [3] [nM]
CCO[C@@H]1C[C@H]2C(=O)NC3(CCC3)C(=O)N(C)[C@@H](C3CCCC3)C(=O)N(C)[C@H](C(=O)N3CCOCC3)CC(=O)N(C)[C@@H](CC3CC3)C(=O)N[C@@H]([C@@H](C)CC)C(=O)N(C)CC(=O)N(C)[C@H]3C/C=C\CCN(C3=O)[C@@H](Cc3ccc(F)cc3)C(=O)N(C)CC(=O)N[C@@H](CCc3cc(F)c(C(F)(F)F)c(F)c3)C(=O)N2C1 [PP1496] | A (a compound having 10 or more and less than 20 is denoted as A) | B (a compound having 3 or more and less than 10 is denoted as B) | 36.7
CC[C@H](C)[C@@H]1NC(=O)[C@H](CC2CCCC2)N(C)C(=O)C[C@@H](C(=O)N(C)C)N(C)C(=O)[C@H](C2CCCC2)N(C)C(=O)C2(CCC2)NC(=O)[C@@H]2C[C@@H](F)CN2C(=O)[C@H](CCc2cc(F)c(C(F)(F)F)c(F)c2)NC(=O)CN(C)C(=O)[C@H](Cc2ccc(C(F)(F)F)cc2)N2CC/C=C\C[C@@H](C2=O)N(C)C(=O)CN(C)C1=O [PP1502] | A (a compound having 10 or more and less than 20 is denoted as A) | A (a compound having 10 or more and less than 20 is denoted as A) | 2
CC[C@H](C)[C@@H]1NC(=O)[C@H](CC2CC2)N(C)C(=O)C[C@@H](C(=O)N(C)C)N(C)C(=O)[C@H](C2CCCC2)N(C)C(=O)C2(CC(C)(C)C2)NC(=O)[C@@H]2C[C@@H](C(F)(F)F)CN2C(=O)[C@H](CCc2cc(F)c(C(F)(F)F)c(F)c2)NC(=O)CN(C)C(=O)[C@H](Cc2ccc(C(F)(F)F)cc2)N2CC/C=C\C[C@@H](C2=O)N(C)C(=O)CN(C)C1=O [PP1504] | A (a compound having 10 or more and less than 20 is denoted as A) | A (a compound having 10 or more and less than 20 is denoted as A) | 38
CC[C@H](C)[C@@H]1NC(=O)[C@H](CC2CC2)N(C)C(=O)C[C@@H](C(=O)N2CCCC2)N(C)C(=O)[C@H](C2CCCC2)N(C)C(=O)C2(CCCC2)NC(=O)[C@@H]2C[C@@H](C(F)(F)F)CN2C(=O)[C@H](CCc2cc(F)c(C(F)(F)F)c(F)c2)NC(=O)CN(C)C(=O)[C@H](Cc2ccc(C(F)(F)F)cc2)N2CC/C=C\C[C@@H](C2=O)N(C)C(=O)CN(C)C1=O [PP1506] | AA (a compound having 20 or more is denoted as AA) | A (a compound having 10 or more and less than 20 is denoted as A) | 73.4
CC[C@H](C)[C@@H]1NC(=O)[C@H](CC2CC2)N(C)C(=O)C[C@@H](C(=O)N(C)C)N(C)C(=O)[C@H](C2CCCC2)N(C)C(=O)C2(CC(C)(C)C2)NC(=O)[C@@H]2C[C@@H](C(F)(F)F)CN2C(=O)[C@H](CCc2cc(F)c(C(F)(F)F)c(F)c2)NC(=O)CN(C)C(=O)[C@H](Cc2ccc(F)cc2)N2CC/C=C\C[C@@H](C2=O)N(C)C(=O)CN(C)C1=O [PP1507] | A (a compound having 10 or more and less than 20 is denoted as A) | A (a compound having 10 or more and less than 20 is denoted as A) | 16.2
CC[C@H](C)[C@@H]1NC(=O)[C@H](CC2CCCC2)N(C)C(=O)C[C@@H](C(=O)N(C)C)N(C)C(=O)[C@H](C2CCCC2)N(C)C(=O)C2(CCC2)NC(=O)[C@@H]2C[C@@H](C(F)(F)F)CN2C(=O)[C@H](CCc2cc(F)c(C(F)(F)F)c(F)c2)NC(=O)CN(C)C(=O)[C@H](Cc2ccc(F)cc2)N2CC/C=C\C[C@@H](C2=O)N(C)C(=O)CN(C)C1=O [PP1508] | A (a compound having 10 or more and less than 20 is denoted as A) | A (a compound having 10 or more and less than 20 is denoted as A) | 28.1
CC[C@H](C)[C@@H]1NC(=O)[C@H](CC2CC2)N(C)C(=O)C[C@@H](C(=O)N2CCCC2)N(C)C(=O)[C@H](C2CCCC2)N(C)C(=O)C2(CCCC2)NC(=O)[C@@H]2C[C@@H](C(F)(F)F)CN2C(=O)[C@H](CCc2cc(F)c(C(F)(F)F)c(F)c2)NC(=O)CN(C)C(=O)[C@H](Cc2ccc(F)cc2)N2CC/C=C\C[C@@H](C2=O)N(C)C(=O)CN(C)C1=O [PP1509] | A (a compound having 10 or more and less than 20 is denoted as A) | A (a compound having 10 or more and less than 20 is denoted as A) | 67.9
CCO[C@@H]1C[C@H]2C(=O)NC3(CCC3)C(=O)N(C)[C@@H](C(CC)CC)C(=O)N(C)[C@H](C(=O)N(C)C)CC(=O)N(C)[C@@H](CC3CC3)C(=O)N[C@@H]([C@@H](C)CC)C(=O)N(C)CC(=O)N(C)[C@H]3C/C=C\CCN(C3=O)[C@@H](Cc3ccc(F)cc3C)C(=O)N(C)CC(=O)N[C@@H](CCc3cc(F)c(C(F)(F)F)c(F)c3)C(=O)N2C1 [PP1514] | A (a compound having 10 or more and less than 20 is denoted as A) | A (a compound having 10 or more and less than 20 is denoted as A) | 72.7
CCO[C@@H]1C[C@H]2C(=O)NC3(CCC3)C(=O)N(C)[C@@H](C(CC)CC)C(=O)N(C)[C@H](C(=O)N(C)C)CC(=O)N(C)[C@@H](CC3CCCC3)C(=O)N[C@@H]([C@@H](C)CC)C(=O)N(C)CC(=O)N(C)[C@H]3C/C=C\CCN(C3=O)[C@@H](Cc3ccc(F)cc3C)C(=O)N(C)CC(=O)N[C@@H](CCc3cc(F)c(C(F)(F)F)c(F)c3)C(=O)N2C1 [PP1516] | A (a compound having 10 or more and less than 20 is denoted as A) | B (a compound having 3 or more and less than 10 is denoted as B) | 45.7
CCO[C@@H]1C[C@H]2C(=O)NC3(CCC3)C(=O)N(C)[C@@H](C(CC)CC)C(=O)N(C)[C@H](C(=O)N(C)C)CC(=O)N(C)[C@@H](CC3CCCC3)C(=O)N[C@@H]([C@@H](C)CC)C(=O)N(C)CC(=O)N(C)[C@H]3C/C=C\CCN(C3=O)[C@@H](Cc3ccc(F)cc3)C(=O)N(C)CC(=O)N[C@@H](CCc3cc(F)c(C(F)(F)F)c(F)c3)C(=O)N2C1 [PP1517] | A (a compound having 10 or more and less than 20 is denoted as A) | A (a compound having 10 or more and less than 20 is denoted as A) | 33.6
CCO[C@@H]1C[C@H]2C(=O)NC3(CCC3)C(=O)N(C)[C@@H](C(CC)CC)C(=O)N(C)[C@H](C(=O)N(C)C)CC(=O)N(C)[C@@H](CC(C)C)C(=O)N[C@@H]([C@@H](C)CC)C(=O)N(C)CC(=O)N(C)[C@H]3C/C=C\CCN(C3=O)[C@@H](Cc3ccc(F)cc3C)C(=O)N(C)CC(=O)N[C@@H](CCc3cc(F)c(C(F)(F)F)c(F)c3)C(=O)N2C1 [PP1518] | A (a compound having 10 or more and less than 20 is denoted as A) | B (a compound having 3 or more and less than 10 is denoted as B) | 49.4
CCO[C@@H]1C[C@H]2C(=O)NC3(CCC3)C(=O)N(C)[C@@H](C(CC)CC)C(=O)N(C)[C@H](C(=O)N(C)C)CC(=O)N(C)[C@@H](CC(C)C)C(=O)N[C@@H]([C@@H](C)CC)C(=O)N(C)CC(=O)N(C)[C@H]3C/C=C\CCN(C3=O)[C@@H](Cc3ccc(F)cc3)C(=O)N(C)CC(=O)N[C@@H](CCc3cc(F)c(C(F)(F)F)c(F)c3)C(=O)N2C1 [PP1519] | A (a compound having 10 or more and less than 20 is denoted as A) | A (a compound having 10 or more and less than 20 is denoted as A) | 78.2
CCO[C@@H]1C[C@H]2C(=O)NC3(CCC3)C(=O)N(C)[C@@H](C(CC)CC)C(=O)N(C)[C@H](C)CC(=O)N(C)[C@@H](CC3CC3)C(=O)N[C@@H]([C@@H](C)CC)C(=O)N(C)CC(=O)N(C)[C@H]3C/C=C\CCN(C3=O)[C@@H](Cc3ccc(F)cc3C)C(=O)N(C)CC(=O)N[C@@H](CCc3cc(F)c(C(F)(F)F)c(F)c3)C(=O)N2C1 [PP1520] | A (a compound having 10 or more and less than 20 is denoted as A) | A (a compound having 10 or more and less than 20 is denoted as A) | 575
CCO[C@@H]1C[C@H]2C(=O)NC3(CCC3)C(=O)N(C)[C@@H](C(CC)CC)C(=O)N(C)[C@H](C)CC(=O)N(C)[C@@H](CC3CC3)C(=O)N[C@@H]([C@@H](C)CC)C(=O)N(C)CC(=O)N(C)[C@H]3C/C=C\CCN(C3=O)[C@@H](Cc3ccc(F)cc3)C(=O)N(C)CC(=O)N[C@@H](CCc3cc(F)c(C(F)(F)F)c(F)c3)C(=O)N2C1 [PP1521] | A (a compound having 10 or more and less than 20 is denoted as A) | B (a compound having 3 or more and less than 10 is denoted as B) | 173
